Experimental data: patent publication US11524045B2, “Peptides for dry eye disease” (ALLYSTA PHARMACEUTICALS, INC., priority 2017, dated 2022)
Entries after “also recorded” stand apart in the source; their conditions may differ.

What was measured:
Type in all cases: in vivo, C57BL/6 mice
[1] = tested on: desiccating stress-induced dry eye (experimental dry eye; EDE); assay: Tear film break-up time (TBUT) in mouse model of desiccating stress-induced dry eye; conditions: EDE mice, 5% Lifitegrast or 0.1% SEQ ID NO:1, 2 μL eye drops three times a day, five and 10-day endpoints, vs untreated dry eye (vehicle)
Method: (§1) The following Methods were used to evaluate the efficacy, anti-inflammatory activity and the therapeutic potential of a peptide inhibitor of trans-endothelial migration peptide compared with 5% Lifitegrast in a mouse model of desiccating stress-induced dry eye (experimental dry eye; EDE).
(§2) Desiccating stress was induced in six to eight-week-old female C57BL/6 mice by subcutaneous injection of 0.5 mg/0.2 mL scopolamine hydrobromide (Sigma-Aldrich, St. Louis, Mo.) three times a day ([…] given at 4.5 hr. intervals) with exposure to an air draft and 30% ambient humidity), which was maintained throughout the dosing period. During these experiments, the animals' behavior, food, and water intake were not restricted. Treatment was terminated and testing was conducted at endpoints of either five or ten days.
Each treatment group comprised 5 animals (n=10 eyes/group) randomly assigned. The groups were treated topically as follows: • 1. Untreated (Normal) control mice that were not exposed to desiccating stress or treated topically • 2. EDE mice treated with balanced salt solution (BSS, vehicle, Alcon, Fort Worth, Tex.) • 3. EDE mice treated with 5% (wt) Lifitegrast (Shire Plc) • 4. […]
All treatment groups received 2 μL eye drops three times a day. The mice in each treatment group: EDE treated with BSS, EDE treated with 5% Lifitegrast, and EDE treated with 0.1% SEQ ID NO:1 were dosed/treated three times/day with 2 uL eye drops of each treatment, respectively (except Normal group). […]
After three blinks, tear film break-up time (BUT) was recorded in seconds using slit lamp biomicroscopy (BQ-900; Haag-Streit, Bern, Switzerland) under cobalt blue light. […]
Tear Film Break-up: This experiment evaluated the anti-inflammatory activity and efficacy of the peptide inhibitor of trans-endothelial migration peptide in ameliorating Desiccation-induced Dry Eye (DED). Eyes were evaluated for time for dry spots to appear on the corneal surface of the eye after blinking. […] Subjects with normal tear quantity but an unstable tear film can explain dry eye symptoms. […]

[2] = tested on: desiccating stress-induced dry eye (experimental dry eye; EDE); assay: Corneal fluorescein staining in mouse model of desiccating stress-induced dry eye; conditions: EDE mice; 5% Lifitegrast or 0.1% SEQ ID NO:1, 2 μL eye drops three times a day; five and ten days; vs untreated dry eyes
Method: as §1, §2
Each treatment group comprised 5 animals (n=10 eyes/group) randomly assigned. […]
Ninety seconds after the fluorescein drops were added to measure TBUT, punctate staining on the corneal surface was evaluated in a masked fashion. Each cornea was divided into four quadrants that were scored individually. Corneal fluorescein staining severity score was calculated using a 4-point scale: 0=absent; 1=slightly punctate staining <30 spots; 2=punctate staining >30 spots, but not diffuse; 3=severe diffuse staining but no positive plaque; and 4=positive fluorescein plaque. […]

[3] = tested on: CD4+ and CCR5+ T cells from the conjunctiva; assay: Flow cytometry of activated T cells from the conjunctiva in murine dry eye model; conditions: EDE mice; 0.1% SEQ ID NO:1 eye drops three times a day; after 10 days; normal range 15% to 22%, normal control 18.86%
Method: as §1, §2
Each treatment group comprised 5 animals (n=10 eyes/group) randomly assigned. The groups were treated topically as follows: • 1. […]
Flow cytometry was performed for quantitation of CD4+ and CCR5+ T cells from the conjunctiva as previously described (Yoon K C, Heo H, Kang I S, et al. Cornea (2008) 27: 454-460). […]
The number of CD4+ and CCR5+ T cells was counted by a FACSCalibur cytometer with CellQuest software (BD Biosciences).
Eye conjunctiva was evaluated for the number of Activated T cells present in the conjunctiva for each group in the murine Dry Eye study. […]

Compound	tear film break-up time [1]	tear film break-up time ([1]; listed as peptide inhibitor of trans-endothelial migration peptide)	corneal fluorescein staining grade (corneal disruptions) [2]	percentage of Activated T Cells within the conjunctiva [3] [%]
H-Ser-Val-Thr-Glu-Gln-Gly-Ala-Glu-Leu-Ser-Asn-Glu-Glu-Arg-NH2 (H-SVTEQGAELSNEER-NH2) [SEQ ID NO:1]	noticeably improved tear film times at both endpoints	noticeably improved tear film times at both intervals	improved corneal disruptions	21.67
CS(=O)(=O)c1cccc(C[C@H](NC(=O)c2c(Cl)cc3c(c2Cl)CCN(C(=O)c2ccc4ccoc4c2)C3)C(=O)O)c1 [Lifitegrast, reference compound]	can ameliorate induced dry eye; also recorded: can ameliorate DED		improved corneal disruptions	
